# Test results published in patent US20170182015A1, “METHODS OF USING SNS-595 FOR TREATMENT OF CANCER SUBJECTS WITH REDUCED BRCA2 ACTIVITY” (Sunesis Pharmaceuticals, Inc., priority 2009, published 2017).
# Experiments:
# VC8 cells (BRCA2 mutant) = assay: Growth inhibition (proliferation) assay in BRCA2 mutant cells; assay type: cell-based, Chinese hamster; details: for IC50: Cricetulus griseus, V-C8, VC8 cells mutant for BRCA2, 4 hr treatment, 120 hr incubation, resazurin; for increase in sensitivity in cells mutant for BRCA2 as compared to cells expressing functional BRCA2: VC8 vs VC8-B2, ratio of IC50
# Description: (§1) The VC8 and VC8-B2 cell lines originate from V79 Chinese hamster […] fibroblast cells. VC8 has a mutation in the brca2 gene and VC8-B2 is this cell line complemented with the human chromosome 13 (containing the brca2 gene; […] Zwet et al., Mol Cell Biol, 2002, 22(2):669-679). The influence of BRCA2 on sensitivity to SNS-595 was evaluated by a proliferation assay in Chinese hamster cells mutant (VC8) and complemented for functional BRCA2 (VC8-B2). […] The following protocol was used for the assay: 1. 4000 cells/well were plated in a 96-well plate such that half of the plate contained VC8 cells, and other half contained VC8-B2 cells. The last column was left cell-free as background control. 2. The plate was incubated at 37° C. with 5% CO2. 1. The media was removed and 50 μL of fresh media was added into each well. 2. […] 3. 100 μL from the first column was transferred into second column and mixed. 100 μL from the second column was transferred into third column and mixed and so on until end of plate. One column was left untreated. The plate was incubated at 37° C. with 5% CO2. […] After 4 hr treatment, plate was washed twice with 100 μL PBS and 250 μL media was added. The plate was incubated at 37° C. with 5% CO2. 1. After 120 hr incubation, the plate was washed with 100 μL PBS and 100 μL resaszurin (10 μg/mL in phenol red-free complete DMEM) was added. 2.
# [1] = system: VC8-B2 cells (complemented for functional BRCA2); assay: Growth inhibition (proliferation) assay in BRCA2 complemented cells; assay type: cell-based, Chinese hamster; details: Cricetulus griseus; VC8-B2 cells expressing functional BRCA2; 4 hr treatment, 120 hr incubation, resazurin
# Description: as §1
# U-2 OS cells = assay: Colony outgrowth assay (clonogenic survival), wild-type vs BRCA2 siRNA depleted; assay type: cell-based, human; details: 14 days
# Description: Activity of SNS-595 in these assays was evaluated by clonogenic survival and compared with doxorubicin. The following protocol was used for the assay:
# 1. 200,000 cells were plated in each of 2 wells in a 6-well plate, and incubated over night at 37° C. and 5% CO2 atmosphere.
# A: Test: 50 μL of 2 μM siBRCA2 (si Genome SMARTpool, Dharmacon)+150 μL OptiMEM (Gibco)
# B: Control (no siRNA): 200 μL OptiMEM
# C: 2 μL DharmaFect 1 (Dharmacon)+198 μL OptiMEM
# 2. Reagents were allowed to stand at room temperature for 5 minutes.
# 3. Reagents A+C and B+C were mixed and allowed to stand at room temperature for 20 min.
# 4. The media in wells was replaced with 1.6 mL of antibiotic-free media (DMEM, Gibco).
# 5. 400 μL of reagents A+B or B+C were added and mixed in wells. The plate was incubated at 37° C.
# 1. After 24 hr of siRNA treatment, cells were trypsinized and counted.
# 2. Cells were plated in 100 mm dishes at 500 or 1000 cells/dish in 10 mL media and incubated for 4 hr.
# 3. After 4 hr, test substances were added and plates were incubated for 14 days.
# 1. The plates were harvested and cells were fixed in methylene blue (4g/L in methanol) and colonies containing more than 50 cells were counted.
# SPD8 cells [2] = assay: Recombination assay: cloning efficiency; assay type: cell-based, Chinese hamster; details: SNS-595 2 μM, doxorubicin 0.5 μM; for cloning efficiency: alone, 4 hr treatment; for effect of aphidicolin (S-phase blocker) co-treatment on cytotoxicity: co-treatment with aphidicolin 0.5 μM
# Source text: (§2) The SPD8 cell line carries a spontaneously derived mutation in the hprt gene and was isolated as a 6-thioguanine (6TG) resistant clone from the V79 Chinese hamster fibroblast cell line. The mutation within the hprt gene is a tandem duplication of exon 7, intron 6, and the 3′ portion of exon 6 that results in expression of a non-functional HPRT protein (Darè et al., Somat Cell Mol Genet, 1996, 22:201-210; and Helleday et al., J Mol Biol, 1998, 279(4):687-694). This duplication can be lost through HR that revert the hprt gene to wild-type, which can be selected for in HAsT (50 μM hypoxanthine, 10 μM L-azaserine, 5 μM thymidine) (Helleday et al. 1998). The DMEM was supplemented with 6TG (5 μg/mL) in order to kill cells that undergo spontaneous reversion. The addition of 6TG at this concentration affects neither the growth rate of these mutants nor the recombination assay procedure.
# (§3) Each flask (75 cm^2) was inoculated with 1.5×10^6 SPD8 cells 24 hr prior to treatment with SNS-595 (2 μM) or doxorubicin (0.5 μM) and in co-treatment with aphidicolin (0.5 μM). After 4 hr of treatment, flasks were rinsed twice with PBS and 20 mL DMEM was added. Cells were then incubated for 48 hr to recover before plating onto Petri dishes. Cloning efficiency was measured by plating 500 cells in 10 mL of medium, two Petri dishes per dose. HPRT+ revertants were selected for by plating 3×10^5 cells/dish in the presence of HAsT (50 μM hypoxanthine,10 μM L-azaserine, 5μM thymidine), three dishes per dose. After 7 and 10 days, respectively, the plates were harvested and the colonies were fixed and stained using methylene blue in methanol (4 g/L). Colonies containing more than 50 cells were counted.
# [3] = system: SPD8 cells (hprt gene reversion by homologous recombination); assay: Recombination assay: HPRT mutation reversion frequency; assay type: cell-based, Chinese hamster; details: for reversion frequency: alone, SNS-595 2 μM, doxorubicin 0.5 μM, 4 hr treatment; for effect of S-phase block (aphidicolin co-treatment) on induced reversion rate / recombination events: co-treatment with aphidicolin 0.5 μM
# Source text: as §2, §3
# SPD8 cells [4] = assay: Pulsed field gel electrophoresis (PFGE) of DNA fragments; assay type: cell-based, Chinese hamster
# Source text: as §2
# Two million (2×10^6) SPD8 cells were seeded in flasks (75 cm^2) and incubated overnight. Subsequently, cells were treated with SNS-595 (20 μM) or doxorubicin (3 μM) and in co-treatment with aphidicolin (3 μM) for 4 hr before being melted into agarose insert (1×10^6 cells/70 μL 1% InCert Agarose, BMA). Inserts were transferred to 0.5 M EDTA, 1% N-laurylsarcosyl and proteinase K (1 mg/mL) and incubated at 50° C. for 48 hr and thereafter washed four times in TE-buffer (2 hr between each wash) prior to loading onto an agarose separation gel (1% Chromosomal grade agarose, Bio-Rad). Separation was performed on a CHEF DR III system (BioRad; 120° field angle, 240 seconds switch time, 4 V/cm) for 18 hr or for 24 hours with 60 to 240 seconds switch time. The gel was stained with ethidium bromide for 5 hr and subsequently analyzed by scanning fluorescence reader (Molecular Imager FX, BioRad) using Quantative One software.
SMILES,IC50 (VC8 cells (BRCA2 mutant)) [nM],increase in sensitivity in cells mutant for BRCA2 as compared to cells expressing functional BRCA2 (VC8 cells (BRCA2 mutant)),IC50 [1] [nM],sensitivity of U-2 OS cells depleted for BRCA2 using siRNA relative to wild-type cells (U-2 OS cells) [×],cloning efficiency (SPD8 cells [2]),effect of aphidicolin (S-phase blocker) co-treatment on cytotoxicity (SPD8 cells [2]),reversion frequency [3],effect of S-phase block (aphidicolin co-treatment) on induced reversion rate / recombination events [3],"production of small DNA fragments (SPD8 cells [4]; FIG. 5 and 6, SNS-595 20 μM, doxorubicin 3 μM, 4 hr, PFGE 18 hr and 24 hr runs)","production of small DNA fragments (SPD8 cells [4]; FIG. 7, 18 hr PFGE run, 240 seconds switch time)","production of small DNA fragments (SPD8 cells [4]; FIG. 8, 24 hr PFGE run, 60 to 240 seconds switch time)"
"CN[C@H]1CN(c2ccc3c(=O)c(C(=O)O)cn(-c4nccs4)c3n2)C[C@@H]1OC [SNS-595, (+)-1,4-dihydro-7-[(3S,4S)-3-methoxy-4-(methylamino)-1-pyrrolidinyl]-4-oxo-1-(2-thiazolyl)-1,8-naphthyridine-3-carboxylic acid]",140,approximately 5 fold,720,4.6,significantly impaired,reduction in cytotoxicity,increased,no effect,–,–,–
COc1cccc2c1C(=O)c1c(O)c3c(c(O)c1C2=O)C[C@@](O)(C(=O)CO)C[C@@H]3O[C@H]1C[C@H](N)[C@H](O)[C@H](C)O1 [doxorubicin],50,approximately 4 fold,190,–,significantly impaired,reduction in cytotoxicity,increased,significantly reduced,more small DNA fragments,more small DNA fragments,more small DNA fragments
